According to ChEMBL document CHEMBL1134177, “Non-peptidic, non-prenylic inhibitors of the prenyl protein-specific protease Rce1” (Bioorg Med Chem Lett, 2001):

Tests used:
[1] = biological target: Protein farnesyltransferase (Homo sapiens, UniProt P49354+P49356); assay: Inhibitory activity against Farnesyltransferase; format: protein-complex assay
[2] = biological target: T1, CAAX prenyl protease 2 (Homo sapiens, UniProt Q9Y256); assay: Inhibition of recombinant prenyl protein-specific protease Rce1 expressed in Sf9 cells […]
T1 sequence (Q9Y256 whole entry): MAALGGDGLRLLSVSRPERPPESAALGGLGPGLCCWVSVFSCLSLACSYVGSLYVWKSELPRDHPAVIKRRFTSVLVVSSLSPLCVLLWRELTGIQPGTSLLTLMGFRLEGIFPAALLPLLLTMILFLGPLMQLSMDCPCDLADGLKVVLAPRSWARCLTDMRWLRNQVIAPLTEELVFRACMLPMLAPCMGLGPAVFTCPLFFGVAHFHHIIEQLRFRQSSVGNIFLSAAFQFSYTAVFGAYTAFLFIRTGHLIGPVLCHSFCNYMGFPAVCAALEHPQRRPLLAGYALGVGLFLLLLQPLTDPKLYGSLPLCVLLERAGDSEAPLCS

[3] = biological target: T1, CAAX prenyl protease 2; assay: Inhibition of recombinant prenyl protein-specific protease Rcel expressed in Sf9 cells
[4] = biological target: T2, CAAX prenyl protease 2 (Homo sapiens) (UniProt Q9Y256); assay: Inhibition of recombinant prenyl protein-specific protease Rce1 in Sf9 cells at a concentration of 10 uM
T2 sequence (whole entry): T1 sequence (Q9Y256 whole entry)

inhibition [4] [%]	Structure (SMILES)	further results
	Cc1cccc(NS(=O)(=O)c2cccc(NC(=O)CCNC(=O)/C=C/c3ccc(-c4ccccc4)cc3)c2)c1C	IC50 [1]: 3.4 µM; IC50 [2]: 7 µM
	CCCCC/C=C\C/C=C\CCCCCCCC(=O)NCCC(=O)Nc1cccc(S(=O)(=O)Nc2cccc(C)c2C)c1	IC50 [1]: 3.8 µM; IC50 [3]: 14 µM
< 5	CCCCCCCCCCCCCCCCCC(=O)NCCC(=O)Nc1cccc(S(=O)(=O)Nc2cccc(C)c2C)c1	IC50 [1]: 2.5 µM
20	CCCCCCCCCCCCCCCC(=O)NCCC(=O)Nc1cccc(S(=O)(=O)NCc2cccc3ccccc23)c1	
22	CCCCCCCCCCCCCCCC(=O)N(C)CCC(=O)Nc1cccc(S(=O)(=O)Nc2cccc(C)c2C)c1	
11	CCCCCCCCCCCCCCCC(=O)NCCC(=O)Nc1cccc(C(=O)Nc2cccc(C)c2C)c1	
< 5	CCCCCCCCCCCCCC(=O)NCCC(=O)Nc1cccc(S(=O)(=O)Nc2cccc(C)c2C)c1	
	CCCCCCCCCCCCCCCCC(=O)NCC(=O)Nc1cccc(S(=O)(=O)Nc2cccc(C)c2C)c1	IC50 [1]: 3.5 µM; IC50 [2]: 7 µM
< 5	CCCCCCCC/C=C\CCCCCCCC(=O)NCCC(=O)Nc1cccc(S(=O)(=O)Nc2cccc(C)c2C)c1	
28	CCCCCCCCCCCCCCCC(=O)NCCC(=O)Nc1ccc(S(=O)(=O)N[C@@H](CCSC)C(=O)OC)cc1	
18	CCCCCCCCCCCCCCCC(=O)NCCC(=O)Nc1cccc(S(=O)(=O)Nc2cccc(C)c2C)c1	
21	CCCCCCCCCCCCCCC(=O)NCCCC(=O)Nc1cccc(S(=O)(=O)Nc2cccc(C)c2C)c1	
15	CCCCCCCCCCCCCCCC(=O)NCCC(=O)Nc1ccc(C(=O)N[C@@H](CCSC)C(=O)OC)cc1	
< 5	CCCCCCCCCCCCCCCC(=O)NCCC(=O)Nc1cccc(S(=O)(=O)Nc2cccc3ccccc23)c1	
23	CCCCCCCCCCCCCCCC(=O)NCCC(=O)Nc1cccc(S(=O)(=O)NCCc2c[nH]c3ccccc23)c1	
22	CCCCCCCCCCCCCCCC(=O)NCC(=O)Nc1ccc(C(=O)N[C@@H](CCSC)C(=O)OC)cc1	
